Measurements published in patent US7517890B2, “GTPase inhibitors and methods of use” (Children's Hospital Medical Center, priority 2003, dated 2009).

Key:
[1] = biological target: T1, RhoA binding to PDZ-RhoGEF (Homo sapiens, UniProt P61586); assay: Complex formation assay, RhoA with PDZ-RhoGEF; conditions: varying concentrations of compound
T1 construct: made in house; host or cells: Cos-7 (PDZ-RhoGEF, used as lysate)
Experimental: Trio and Tiam-1 co-precipitate with GST-Rac1, but not GST or GST-Cdc42.
In FIG. 2A, 0.5 μg of (His)6-tagged TrioN was incubated with GST alone or nucleotide-free, GST-fused Cdc42 or Rac1 (2 μg) in the binding buffer containing different concentrations of NSC23766 and 10 μl suspended glutathione-agarose. After an incubation at 4° C. for 30 minutes, the beads associated (His)6-TrioN were detected by anti-His Western blotting. The blots were quantified by densitometry analysis. The results are representative of three measurements. In FIG. 2B, myc-tagged Tiam1 expressed in Cos-7 cell lysates were incubated with (His)6-Rac1 in the presence of increasing concentrations of NSC23766. The association of Rac1 with Tiam1 was examined by anti-His blot after anti-myc immunoprecipitation. In FIG. 2C, the AU-tagged PDZ-RhoGEF was expressed in Cos-7 lysates and incubated with GST or GST-RhoA in the presence of varying concentrations of NSC23766. The RhoA associated PDZ-RhoGEF was probed with anti-AU antibody after affinity precipitation by glutathione agarose beads. In FIG. 2D, (His)6-Rac1 loaded with GTPγ S was incubated with GST-BcrGAP or GST-PAK1 (PBD) in the presence or absence of 200 μM NSC23766 and the interaction with GSTBcrGAP or GST-PAK1 was probed by anti-His blot after affinity precipitation by glutathione agarose beads.

NIH 3T3 cells = assay: Cell growth assay, wild type and RacL61- or GEF-transfected NIH 3T3 cells; assay type: cell-based; conditions: 5% serum, 100 μM compound
Swiss 3T3 cells = assay: Immunofluorescence of PDGF-stimulated lamellipodia formation (actin staining); conditions: for PDGF induction of lamellipodia at the cell edges in the presence of compound: 100 μM compound, 10 nM PDGF
Experimental: Immunofluorescence. […] The cellular actin is stained with TRITC-labeled phalloidin (Sigma) at 10 μg/ml in PBS for 40 min at room temperature. The actin and cell morphological changes are visualized by fluorescence microscopy.
The cells were fixed and stained with Rhodamine-labeled phalloidin.

PC-3 cells [2] = assay: Matrigel cell invasion assay; conditions: 25 μM compound, 24 hrs
Experimental: Cell invasion assays. The cell invasion assays are performed using 6.4-mm Biocoat Matrigel invasion chambers with 8.0-micron pore size PET membrane (Becton-Dickinson) according to the manufactory instructions. Briefly, 5×10^4 cells are resuspended in 0.5 ml of serum free culture medium and added to the upper chamber. 10% fetal bovine serum in the culture medium is used as a chemo-attractant in the lower chamber. After the cells are incubated for overnight, the number of cell passed through the Matrigel is counted.
Cells invaded through Matrigel matrix were visualized with Giemasa staining.

[3] = tested on: Tiam1-expressing NIH 3T3 cells; assay: Transformation of GEF-expressing NIH 3T3 cells (foci, soft agar); assay type: cell-based; conditions: foci: 50 μM every two days, 14 days, soft agar: 100 μM
PC-3 cells [4] = assay: Anchorage independent growth of PC-3 cells in soft agar
Excerpt: Anchorage independent growth.
The cells were split in triplicate in 96-wells at 1.5×10^3 cells per well.

endogenous RhoA = endogenous RhoA (Mus musculus, UniProt Q9QUI0); assay: Endogenous Rho GTPase activity assay (GST-Rhotekin pull-down), RhoA in NIH 3T3 cells; conditions: NIH 3T3 cells in 10% serum
endogenous RhoA, sequence (Q9QUI0 whole entry): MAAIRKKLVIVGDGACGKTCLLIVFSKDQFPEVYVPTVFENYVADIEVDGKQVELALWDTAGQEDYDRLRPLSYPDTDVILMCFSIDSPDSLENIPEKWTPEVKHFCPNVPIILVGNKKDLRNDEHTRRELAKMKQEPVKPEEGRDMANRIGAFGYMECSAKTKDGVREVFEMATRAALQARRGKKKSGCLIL
Experimental: Endogenous Rho GTPase activity assay. […] Cells are grown in log phase in a 10 cm dish, and are starved in 0.5% serum medium or indicated otherwise for 24 hrs prior to lysis in a buffer containing 20 mM Tris-HCl (pH 7.6), 100 mM NaCl, 10 mM MgCl2, 1% NP-40, 10% glycerol, and 1× proteases inhibitor cocktail (Roch). Lysates are clarified and the protein concentrations are normalized. The cell lysates containing equal amount of proteins are incubated with 10 μg GST- or His6-fusion probes for 40 min at 4° C. under constant rotation. The beads are washed twice with the lysis buffer, and the bound-Rho GTPases are detected by anti-Rac1 (Upstate), or anti-Cdc42 (BD Transduction Laboratories) Western blotting. Quantification of the Western blots is carried out using a LAS-1000 luminescent image analyzer (Fujifilm medical system, USA, Inc.).
Cell lysates containing similar amount of Rac1, Cdc42 or RhoA were incubated with the agarose immobilized GST-PAK1, GST-WASP or GST-Rhotekin, and the co-precipitates were subjected to anti-Rac1, Cdc42 or RhoA Western blot analysis to reveal the amount of GTP-Bound Rho proteins.

PC-3 cells [5] = assay: PC-3 cell growth (CellTiter 96 AQueous assay); conditions: 5% serum, indicated concentrations of compound
Experimental: Cell growth assay. […] The growth rate of the prostate PC-3 cells is measured by the CellTiter 96 AQueous assay (Promega). 1,500 cells/well in 200 μl of 5% FBS medium are plated in 96-well plates and are grown under normal conditions. Cultures are assayed in 0, 1, 2, 3, 4, or 5 days by the addition of 20 μl of the combined MTS/PMS solution followed by incubation for one hour at 37° C. Absorbency is measured at a wavelength of 490 nm on an automated microplate reader.
The cells were split in triplicate in 96-wells at 1.5×10^3 cells per well. Cell numbers were assayed by using CellTiter 96 AQueous cell proliferation assay kit in different days.

[6] = biological target: PDZ-RhoGEF-stimulated mantGDP/GTP exchange of RhoA (Homo sapiens, UniProt P61586); assay: In vitro guanine nucleotide exchange assay (mant-GDP), RhoA / PDZ-RhoGEF; assay type: biochemical; conditions: 200 μM compound
PDZ-RhoGEF-stimulated mantGDP/GTP exchange of RhoA, sequence (P61586 whole entry): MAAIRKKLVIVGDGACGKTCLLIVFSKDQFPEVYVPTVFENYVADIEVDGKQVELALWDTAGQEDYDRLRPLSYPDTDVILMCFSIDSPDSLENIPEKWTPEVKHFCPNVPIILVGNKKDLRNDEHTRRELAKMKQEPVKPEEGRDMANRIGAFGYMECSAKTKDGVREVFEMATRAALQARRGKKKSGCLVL
Experimental: In vitro guanine nucleotide exchange assay. For these, 200 nM Rac1 loaded with mant-GDP is incubated at 25° C. in an exchange buffer containing 100 mM NaCl, 5 mM MgCl2, 50 mM Tris-HCl (pH 7.6), and 0.5 mM GTP in the absence or presence of 200 nM Trio. The mant-GDP fluorescence changes in the course of the exchange reactions are monitored with an excitation wavelength at 360 nm and the emission wavelength at 440 nm by a Cary Ellipse fluorescence spectrometer (Varian, Inc.).
In FIG. 3. […] In FIG. 3A, NSC23766 inhibited TrioN catalyzed GDP/GTP exchange of Rac1 in a dose dependent manner. 200 nM Rac1 loaded with mant-GDP was incubated at 25° C. in an exchange buffer containing 100 mM NaCl, 5 mM MgCk2, 50 mM Tris-HCl (PH 7.6), and 0.5 mM GTP in the absence (top line) or presence of 100 nM TrioN. Increasing concentrations of NSC23766 were included in the exchange buffer as indicated. In FIG. 3B, NSC23766 had no effect on the Intersectin-stimulated GDP/GTP exchange of Cdc42. 200 nM Cdc42 loaded with mant-GDP was incubated in the exchange buffer in the absence (top line) or presence of 100 nM Intersectin with or without 200 μM NSC23766. In FIG. 3C, the exchange reaction of RhoA catalyzed by PDZ-RhoGEF was carried out similarly in the presence or absence of 200 μM NSC23766.

T1 sequence (P61586 whole entry): as above

CCN(CC)CCCC(C)Nc1nc(C)cc(Nc2ccc3nc(C)cc(N)c3c2)n1 (stereo not drawn) [compound 23766, N^6-(2-((4-(diethylamino)-1-methylbutyl)amino)-6-methyl-4-pyrimidinyl)-2-methyl-4,6-quinolinediamine]
effect on RhoA binding to PDZ-RhoGEF [1]: does not interfere
growth of wild type NIH 3T3 cells (NIH 3T3 cells): slow the growth
growth rate of Rac1L61 expressing NIH 3T3 cells (NIH 3T3 cells): no effect
cell growth induced by the Rac specific GEF Trio (NIH 3T3 cells; GEF expressing NIH 3T3 cells): capable of inhibiting
PDGF-stimulated lamellipodia formation (Swiss 3T3 cells; 50 μM compound, overnight serum starvation, 10 nM PDGF (FIG. 4C legend)): inhibited PDGF-stimulated lamellipodia formation
PDGF induction of lamellipodia at the cell edges in the presence of compound (Swiss 3T3 cells; 5 min): only marginally effective
PDGF induction of lamellipodia at the cell edges in the presence of compound (Swiss 3T3 cells; 10 min): completely ineffective
PC-3 cell invasion (PC-3 cells [2]): significantly inhibits
Rac GEF stimulated cell growth and transformation [3]: specifically inhibited
size of colonies of treated cells versus untreated (PC-3 cells [4]): much smaller
colony-forming activity remaining (PC-3 cells [4]; 25 μM compound): Approximately 10%
colony-forming activity remaining (PC-3 cells [4]; 50 μM compound): ~1%
level of RhoA-GTP in cells (endogenous RhoA): slightly increased level
proliferation rates of PC-3 cells (PC-3 cells [5]): inhibited by compound 23766 in a dose dependent manner
effect on PDZ-RhoGEF-stimulated mantGDP/GTP exchange of RhoA [6]: little impact
